Assay results published in ChEMBL document CHEMBL3044660, “Synthesis of 2-amino-6-oxocyclohexenylsulfonamides and their activity against Botrytis cinerea” (Pest Manag Sci, 2011).
≈ marks a conversion by molar mass, not a printed value.

Legend:
Botrytis cinerea [1] = test: Fungicidal activity against Botryotinia fuckeliana assessed as inhibition of spore germination measured after 24 hr; assay type: functional, organism-based
Botrytis cinerea [2] = test: Fungicidal activity against Botryotinia fuckeliana assessed as germ-tube elongation inhibition at 50 ug/ml measured after 24 hr; assay type: functional
Botrytis cinerea [3] = test: Fungicidal activity against Botryotinia fuckeliana assessed as inhibition of mycelial growth measured after 72 hr; assay type: functional, organism-based
Botrytis cinerea [4] = test: Fungicidal activity against Botryotinia fuckeliana in 2 hr compound pretreated cucumber seedling assessed as inhibition of spot diameter squared as control efficiency at 200 ug/ml measured after 72 hr; assay type: functional; set-up: scale not given: the % may be the effect or the level left

## CCCNC1=C(S(=O)(=O)NCCC)C(=O)CC(C)(C)C1
Botrytis cinerea [1]
  EC50: 0.23 µg/mL (≈ 0.76 µM)
  EC80: 15.6 µg/mL (≈ 51.7 µM)
Botrytis cinerea [2]
  inhibition at 50 µg/mL: 51.2%
Botrytis cinerea [3]
  EC50: 149 µg/mL (≈ 494 µM)
Botrytis cinerea [4]
  Activity: 66.59%

## O=C1CCCC(Nc2ccccc2Cl)=C1S(=O)(=O)Nc1ccccc1Cl
Botrytis cinerea [1]
  EC50: 0.37 µg/mL (≈ 0.9 µM)
  EC80: 60.9 µg/mL (≈ 148 µM)
Botrytis cinerea [2]
  inhibition at 50 µg/mL: 81.9%
Botrytis cinerea [3]
  EC50: 10.6 µg/mL (≈ 25.7 µM)
Botrytis cinerea [4]
  Activity: 74.81%

## O=C1CCCC(Nc2ccc(Cl)cc2)=C1S(=O)(=O)Nc1ccc(Cl)cc1
Botrytis cinerea [1]
  EC50: 0.26 µg/mL (≈ 0.632 µM)
  EC80: > 200 µg/mL
Botrytis cinerea [2]
  inhibition at 50 µg/mL: 61.3%
Botrytis cinerea [3]
  EC50: 125 µg/mL (≈ 305 µM)
Botrytis cinerea [4]
  Activity: 53.57%

## Cc1ccc(NC2=C(S(=O)(=O)Nc3ccc(C)cc3)C(=O)CCC2)cc1
Botrytis cinerea [1]
  EC50: 0.54 µg/mL (≈ 1.46 µM)
  EC80: 117 µg/mL (≈ 315 µM)
Botrytis cinerea [2]
  inhibition at 50 µg/mL: 20.5%
Botrytis cinerea [3]
  EC50: 47.4 µg/mL (≈ 128 µM)
Botrytis cinerea [4]
  Activity: 57.48%

## CC1(C)CC(=O)C(S(=O)(=O)Nc2ccccc2Cl)=C(Nc2ccccc2Cl)C1
Botrytis cinerea [1]
  EC50: 0.34 µg/mL (≈ 0.774 µM)
  EC80: 4.53 µg/mL (≈ 10.3 µM)
Botrytis cinerea [2]
  inhibition at 50 µg/mL: 85.7%
Botrytis cinerea [3]
  EC50: 21.2 µg/mL (≈ 48.2 µM)
Botrytis cinerea [4]
  Activity: 73.39%

## CC1(C)CC(=O)C(S(=O)(=O)Nc2cccc(Cl)c2)=C(Nc2cccc(Cl)c2)C1
Botrytis cinerea [1]
  EC50: 3.03 µg/mL (≈ 6.9 µM)
  EC80: 128 µg/mL (≈ 290 µM)
Botrytis cinerea [2]
  inhibition at 50 µg/mL: 58.6%
Botrytis cinerea [3]
  EC50: 32.7 µg/mL (≈ 74.4 µM)
Botrytis cinerea [4]
  Activity: 58.51%

## CC1(C)CC(=O)C(S(=O)(=O)Nc2ccc(Cl)cc2)=C(Nc2ccc(Cl)cc2)C1
Botrytis cinerea [1]
  EC50: 0.54 µg/mL (≈ 1.23 µM)
  EC80: 7.04 µg/mL (≈ 16 µM)
Botrytis cinerea [2]
  inhibition at 50 µg/mL: 78.6%
Botrytis cinerea [3]
  EC50: 128 µg/mL (≈ 290 µM)
Botrytis cinerea [4]
  Activity: 65.89%

## CC1(C)CC(=O)C(S(=O)(=O)Nc2ccc(Cl)c(Cl)c2)=C(Nc2ccc(Cl)c(Cl)c2)C1
Botrytis cinerea [1]
  EC50: 2.66 µg/mL (≈ 5.23 µM)
  EC80: 12.3 µg/mL (≈ 24.2 µM)
Botrytis cinerea [2]
  inhibition at 50 µg/mL: 64.3%
Botrytis cinerea [3]
  EC50: 67.7 µg/mL (≈ 133 µM)
Botrytis cinerea [4]
  Activity: 69.77%

## CC1(C)CC(=O)C(S(=O)(=O)Nc2ccc(Br)cc2)=C(Nc2ccc(Br)cc2)C1
Botrytis cinerea [1]
  EC50: 1.44 µg/mL (≈ 2.73 µM)
  EC80: 7.39 µg/mL (≈ 14 µM)
Botrytis cinerea [2]
  inhibition at 50 µg/mL: 67.9%
Botrytis cinerea [3]
  EC50: 39.1 µg/mL (≈ 74.1 µM)
Botrytis cinerea [4]
  Activity: 45.09%

## CC1(C)CC(=O)C(S(=O)(=O)Nc2ccccc2)=C(Nc2ccccc2)C1
Botrytis cinerea [1]
  EC50: 96.6 µg/mL (≈ 261 µM)
  EC80: > 200 µg/mL
Botrytis cinerea [2]
  inhibition at 50 µg/mL: 21.4%
Botrytis cinerea [3]
  EC50: 147 µg/mL (≈ 398 µM)
Botrytis cinerea [4]
  Activity: 61.17%

## CC1(C)CC(=O)C(S(=O)(=O)NCc2ccccc2)=C(NCc2ccccc2)C1
Botrytis cinerea [1]
  EC50: 73.4 µg/mL (≈ 184 µM)
  EC80: 139 µg/mL (≈ 349 µM)
Botrytis cinerea [2]
  inhibition at 50 µg/mL: 28.6%
Botrytis cinerea [3]
  EC50: 26.4 µg/mL (≈ 66.2 µM)
Botrytis cinerea [4]
  Activity: 42.16%

## Cc1ccccc1NC1=C(S(=O)(=O)Nc2ccccc2C)C(=O)CC(C)(C)C1
Botrytis cinerea [1]
  EC50: 19.5 µg/mL (≈ 49 µM)
  EC80: 140 µg/mL (≈ 352 µM)
Botrytis cinerea [2]
  inhibition at 50 µg/mL: 57.2%
Botrytis cinerea [3]
  EC50: 8.05 µg/mL (≈ 20.2 µM)
Botrytis cinerea [4]
  Activity: 64.43%

## Cc1ccc(NC2=C(S(=O)(=O)Nc3ccc(C)cc3)C(=O)CC(C)(C)C2)cc1
Botrytis cinerea [1]
  EC50: 3.29 µg/mL (≈ 8.26 µM)
  EC80: 72.1 µg/mL (≈ 181 µM)
Botrytis cinerea [2]
  inhibition at 50 µg/mL: 57.2%
Botrytis cinerea [3]
  EC50: 22.8 µg/mL (≈ 57.2 µM)
Botrytis cinerea [4]
  Activity: 58.6%

## Cc1cc(F)ccc1NC1=C(S(=O)(=O)Nc2ccc(F)cc2C)C(=O)CC(C)(C)C1
Botrytis cinerea [1]
  EC50: 1.59 µg/mL (≈ 3.66 µM)
  EC80: > 200 µg/mL
Botrytis cinerea [2]
  inhibition at 50 µg/mL: 42.9%
Botrytis cinerea [3]
  EC50: 45.7 µg/mL (≈ 105 µM)
Botrytis cinerea [4]
  Activity: 73.46%

## CC1(C)CC(=O)C(S(=O)(=O)Nc2ccc(Cl)cc2C(F)(F)F)=C(Nc2ccc(Cl)cc2C(F)(F)F)C1
Botrytis cinerea [1]
  EC50: 6.14 µg/mL (≈ 10.7 µM)
  EC80: > 200 µg/mL
Botrytis cinerea [2]
  inhibition at 50 µg/mL: 51.1%
Botrytis cinerea [3]
  EC50: 154 µg/mL (≈ 268 µM)
Botrytis cinerea [4]
  Activity: 47.92%

## CC1(C)CC(=O)C(S(=O)(=O)Nc2cccc(C(F)(F)F)c2)=C(Nc2cccc(C(F)(F)F)c2)C1
Botrytis cinerea [1]
  EC50: 0.16 µg/mL (≈ 0.316 µM)
  EC80: 14.2 µg/mL (≈ 27.9 µM)
Botrytis cinerea [2]
  inhibition at 50 µg/mL: 30.6%
Botrytis cinerea [3]
  EC50: 156 µg/mL (≈ 308 µM)
Botrytis cinerea [4]
  Activity: 67.74%

## CC1(C)CC(=O)C(S(=O)(=O)Nc2cc(C(F)(F)F)cc(C(F)(F)F)c2)=C(Nc2cc(C(F)(F)F)cc(C(F)(F)F)c2)C1
Botrytis cinerea [1]
  EC50: 0.51 µg/mL (≈ 0.794 µM)
  EC80: 34.8 µg/mL (≈ 54.2 µM)
Botrytis cinerea [2]
  inhibition at 50 µg/mL: 61.5%
Botrytis cinerea [3]
  EC50: 92.2 µg/mL (≈ 144 µM)
Botrytis cinerea [4]
  Activity: 75.29%

## CC1(C)CC(=O)C(S(=O)(=O)NC2CCCCC2)=C(NC2CCCCC2)C1
Botrytis cinerea [1]
  EC50: 0.64 µg/mL (≈ 1.67 µM)
  EC80: 15.4 µg/mL (≈ 40.3 µM)
Botrytis cinerea [2]
  inhibition at 50 µg/mL: 61.5%
Botrytis cinerea [3]
  EC50: 63.7 µg/mL (≈ 167 µM)
Botrytis cinerea [4]
  Activity: 82.21%

## CC12CC1(C)C(=O)N(c1cc(Cl)cc(Cl)c1)C2=O (stereo not given) [PROCYMIDONE]
Botrytis cinerea [1]
  EC50: 0.98 µg/mL (≈ 3.45 µM)
  EC80: 3.18 µg/mL (≈ 11.2 µM)
Botrytis cinerea [2]
  inhibition at 50 µg/mL: 100%
Botrytis cinerea [3]
  EC50: 0.63 µg/mL (≈ 2.22 µM)
Botrytis cinerea [4]
  Activity: 80.39%
